Measurements published in US20250319046A1, “PHENYLALANINE-BASED LAT1 INHIBITORS AND USES THEREOF” (MAXYMUNE THERAPEUTICS, INC., priority 2024, published 2025).
Structures can show the parent of a compound that is named as a salt. Where two headings read alike, the source gives them in different places.

Key:
LN229 cells = test: Amino acid starvation assay: antiproliferation assay with LN229 cells (CellTiter-Glo); assay type: cell-based; conditions: F12K medium, six days
Procedure: Amino Acid Starvation Assay
The ability of compounds to inhibit amino acid uptake interact with LAT1 was measured using an antiproliferation assay with LN229 cells (ATCC®). LN229 cells were cultured in DMEM medium (VWR International). Two (2)×10^3 (2,000) cells/well were plated in clear bottom 96-well plates (CellBIND®, Corning 3340) and were allowed to attach overnight. The next day, cells were washed once with PBS buffer (VWR International). F12K medium ([…]) (VWR International) with increasing concentrations of test compounds in at least triplicate was added. Cells were incubated for six (6) days at 37° C. and 5% CO2. At end of the assay, 140 μL of supernatant medium were removed from each well and 60 μL of CellTiter-Glo® (Promega) were added. Cell lysis was induced by placing the plates for three (3) minutes on an orbital shaker. Plates were incubated for 10 min at 25° C. to stabilize the luminesce signal. Luminescence was recorded using an EnSpire® Multimode Plate Reader (Perkin Elmer). Background (luminescence from wells incubated in the presence of 100 µM of commercial LAT1 inhibitor JPH203 (MedKoo) was subtracted, and data were normalized to the DMSO control (proliferation in the absence of any competitor). Data were fitted to the Michaelis-Menten equation using GraphPad Prism (Version 8.2.0).

LAT1 = LAT1 (Homo sapiens (Human), UniProt Q01650); test: LAT1 uptake inhibition assay: [3H]-gabapentin competition uptake in LN229 cells; assay type: cell-based; conditions: [3H]-gabapentin uptake
Sequence of LAT1 (Q01650 whole entry): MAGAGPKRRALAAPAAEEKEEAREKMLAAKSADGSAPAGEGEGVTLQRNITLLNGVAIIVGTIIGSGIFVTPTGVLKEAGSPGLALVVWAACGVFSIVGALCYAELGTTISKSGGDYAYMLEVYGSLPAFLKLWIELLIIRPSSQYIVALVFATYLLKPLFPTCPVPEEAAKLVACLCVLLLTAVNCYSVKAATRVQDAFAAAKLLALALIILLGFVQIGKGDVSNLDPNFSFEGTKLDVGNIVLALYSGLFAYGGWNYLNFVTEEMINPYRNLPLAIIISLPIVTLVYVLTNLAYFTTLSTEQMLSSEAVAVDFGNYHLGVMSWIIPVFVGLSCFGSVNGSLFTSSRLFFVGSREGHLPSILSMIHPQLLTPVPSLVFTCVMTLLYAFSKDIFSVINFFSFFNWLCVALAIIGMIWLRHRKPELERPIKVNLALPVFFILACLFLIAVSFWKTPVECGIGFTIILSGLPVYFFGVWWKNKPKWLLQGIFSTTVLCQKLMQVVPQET
Sequence of LAT1 (P08195 whole entry partner): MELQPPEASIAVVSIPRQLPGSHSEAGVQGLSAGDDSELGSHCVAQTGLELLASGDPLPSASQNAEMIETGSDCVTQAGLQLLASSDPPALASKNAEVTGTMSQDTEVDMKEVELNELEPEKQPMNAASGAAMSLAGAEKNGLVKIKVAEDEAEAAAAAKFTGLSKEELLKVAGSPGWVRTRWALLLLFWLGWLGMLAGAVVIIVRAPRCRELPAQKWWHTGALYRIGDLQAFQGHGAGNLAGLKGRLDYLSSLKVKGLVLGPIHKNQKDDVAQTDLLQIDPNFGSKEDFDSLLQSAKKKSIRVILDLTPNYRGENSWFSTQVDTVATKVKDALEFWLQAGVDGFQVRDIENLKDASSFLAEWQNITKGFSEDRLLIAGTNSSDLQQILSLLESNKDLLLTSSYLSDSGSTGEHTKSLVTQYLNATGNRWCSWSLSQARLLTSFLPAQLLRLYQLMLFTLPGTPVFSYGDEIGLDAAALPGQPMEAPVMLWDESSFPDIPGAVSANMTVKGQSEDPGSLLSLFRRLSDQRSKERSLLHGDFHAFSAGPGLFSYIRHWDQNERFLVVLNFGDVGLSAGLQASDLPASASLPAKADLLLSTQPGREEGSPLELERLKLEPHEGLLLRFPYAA
Procedure: LAT1 Uptake Inhibition Assay
The ability of compounds to interact with LAT1 was measured using a radiolabeled competition uptake assay with [^3H]-Gabapentin ([^3H]-GP) (Perkin Elmer) in 96-well plates with LN229 cells (ATCC®). Ten (10)×10^3 (10,000) cells/well were plated in white, clear bottom plates and were allowed to grow for three (3) days. On the fourth day, the cells were washed and then incubated with 50,000 counts per minute (cpm) of [^3H]-GP in phosphate buffered saline (PBS) (VWR International) with increasing concentrations of test compounds in at least triplicate for 15 min. At end of the assay time, the incubation solution was removed, and plates were washed three times (3×) with 100 μL of ice-cold PBS buffer. One-hundred fifty (150) […] of scintillation fluid (VWR International) was added to each well, and the radioactivity retained within the cells was measured on a 96-well scintillation counter. Background uptake ([^3H]-GP uptake in the presence of 10 mM non-radiolabeled gabapentin (GP)) (MedKoo) was subtracted and data were normalized to the DMSO control ([^3H]-GP uptake in the absence of any competitor). Data were fitted to the Michaelis-Menten equation using GraphPad Prism (Version 8.2.0).

[1] = Homo sapiens, LN-229, 144 h, Table 1, read-out: Anti-proliferation LC50 (μM ± SE)
[2] = Homo sapiens, LN-229, 144 h, read-out: LC50, the concentration of test compound at which the proliferation was inhibited by 50%
[3] = 15 min incubation in PBS, read-out: IC50, the concentration of test compound at which the [3H]-GP uptake was inhibited by 50%
[4] = Table 1, read-out: LAT1 inhibition IC50 (nM ± SE)

Structure (SMILES) | CC50 (LN229 cells; [1]) [µM] | CC50 (LN229 cells; [2]) [µM] | IC50 (LAT1; [3]) [nM] | IC50 (LAT1; [4]) [nM] | CC50 (LN229 cells; Table 1, read-out: Anti-proliferation LC50 (μM ± SE)) [µM]
COc1ccc(NS(=O)(=O)c2ccc(C)c(C[C@H](N)C(=O)O)c2)cc1 [Compound 44, (S)-2-Amino-3-(5-(N-(4-methoxyphenyl)sulfamoyl)-2-methylphenyl)propanoic Acid] | 20 ± 6 | < 30 | ≤ 20 | 10 ± 3 | 
Cc1ccc(S(=O)(=O)Nc2ccc(-c3ccccc3)cc2)cc1C[C@H](N)C(=O)O [Compound 40, (S)-3-(5-(N-([1,1′-Biphenyl]-4-yl)sulfamoyl)-2-methylphenyl)-2-aminopropanoic Acid] | 60 ± 20 | 30 to 100 | 20 to 100 | 25 ± 8 | 
Cc1ccc(NS(=O)(=O)c2ccccc2)cc1C[C@H](N)C(=O)O [Compound 10, (S)-2-Amino-3-(2-methyl-5-(phenylsulfonamido)phenyl)propanoic Acid] | 70 ± 20 | 30 to 100 | 20 to 100 | 100 ± 40 | 
CCCCNS(=O)(=O)c1ccc(C)c(C[C@H](N)C(=O)O)c1 [Compound 41, (S)-2-Amino-3-(5-(N-butylsulfamoyl)-2-methylphenyl)propanoic Acid] | 36 ± 10 | 30 to 100 | 20 to 100 | 56 ± 9 | 
Cc1ccc(S(=O)(=O)Nc2ccc(Cl)cc2)cc1C[C@H](N)C(=O)O [Compound 52, (S)-2-Amino-3-(5-(N-(4-chlorophenyl)sulfamoyl)-2-methylphenyl)propanoic Acid] | 9.7 ± 0.7 | < 30 | ≤ 20 | 12 ± 2 | 
Cc1ccc(S(=O)(=O)NCc2ccccc2)cc1C[C@H](N)C(=O)O [Compound 30, (S)-2-Amino-3-(5-(N-benzylsulfamoyl)-2-methylphenyl)propanoic Acid] | 38 ± 2 | 30 to 100 | ≤ 20 | 20 ± 4 | 
Cc1ccc(S(=O)(=O)Nc2cccc3ccccc23)cc1C[C@H](N)C(=O)O [Compound 39, (S)-2-Amino-3-(2-methyl-5-(N-(naphthalen-1-yl)sulfamoyl)phenyl)propanoic Acid] | 32 ± 2 | 30 to 100 | 20 to 100 | 24 ± 9 | 
N[C@@H](Cc1cccc(S(=O)(=O)Nc2ccc(Cl)cc2)c1)C(=O)O [Compound 79, (S)-2-Amino-3-(3-(N-(4-chlorophenyl)sulfamoyl)phenyl)propanoic Acid] | 100 ± 20 | ≥ 100 | 20 to 100 | 80 ± 10 | 
CC(C)c1ccc(S(=O)(=O)Nc2ccc(Cl)cc2)cc1C[C@H](N)C(=O)O [Compound 86, (S)-2-Amino-3-(5-(N-(4-chlorophenyl)sulfamoyl)-2-isopropylphenyl)propanoic Acid] | 4 ± 0.7 | < 30 | ≤ 20 | 10 ± 1 | 
Cc1ccc(NS(=O)(=O)c2ccc(C(C)(C)C)cc2)cc1C[C@H](N)C(=O)O [Compound 87, (S)-2-Amino-3-(5-((4-(tert-butyl)phenyl)sulfonamido)-2-methylphenyl)propanoic Acid] | 100 ± 20 | ≥ 100 | 20 to 100 | 100 ± 20 | 
CC(C)c1ccc(NS(=O)(=O)c2cccc3c(N(C)C)cccc23)cc1C[C@H](N)C(=O)O [Compound 21, (S)-2-Amino-3-(5-((5-(dimethylamino)naphthalene)-1-sulfonamido)-2-isopropylphenyl)propanoic Acid] | 49 ± 1 | 30 to 100 | 20 to 100 | 50 ± 10 | 
Cc1ccc(S(=O)(=O)Nc2ccccc2)cc1C[C@H](N)C(=O)O [Compound 35, (S)-2-Amino-3-(2-methyl-5-(N-phenylsulfamoyl)phenyl)propanoic Acid Hydrochloride] |  |  |  | 30 ± 8 | 40 ± 10
Cc1ccc(NS(=O)(=O)c2cccc(Br)c2)cc1C[C@H](N)C(=O)O [Compound 29, (S)-2-Amino-3-(5-((3-bromophenyl)sulfonamido)-2-methylphenyl)propanoic Acid] | 90 ± 30 | 30 to 100 | 20 to 100 | 40 ± 10 | 
Cc1ccc(NS(=O)(=O)c2cccc(-c3ccccc3)c2)cc1C[C@H](N)C(=O)O [Compound 38, (S)-3-(5-([1,1′-Biphenyl]-3-sulfonamido)-2-methylphenyl)-2-aminopropanoic Acid] | 52 ± 2 | 30 to 100 | 20 to 100 | 40 ± 10 | 
Cc1ccc(S(=O)(=O)Nc2ccc(Br)cc2)cc1C[C@H](N)C(=O)O [Compound 77, (S)-2-Amino-3-(5-(N-(4-bromophenyl)sulfamoyl)-2-methylphenyl)propanoic Acid] | 13 ± 1 | < 30 | ≤ 20 | 12 ± 4 | 
Cc1ccc(S(=O)(=O)NC2CCCCC2)cc1C[C@H](N)C(=O)O [Compound 53, (S)-2-Amino-3-(5-(N-cyclohexylsulfamoyl)-2-methylphenyl)propanoic Acid] | 100 ± 10 | ≥ 100 | 20 to 100 | 60 ± 10 | 
